System: Human ciliated epithelium cells
Procedure: A cytotoxic damage of these cells which would cause a restriction of the mucociliar clearance can be determined by a detectable decrease of the ciliary vibration.
Human ciliated epithelium cells were analysed by an in-vitro method which enables the determination of the ciliary activity or ciliary vibration. The corresponding cells were exposed and incubated with 100 je.1 test substance at a temperature of 37 C. After an incubation period of 5 minutes the ciliary vibration was measured.
By using this in-vitro method a nutriant solution (Dulbeco) as standard, a 0.2% chlorohexidine solution (typical antiseptic agent), conventional polyvidone iodine solutions (Betaisodona) of different concentrations (5.0%, 2.5% and 1.25% PVP-iodine) and a liposomal solution containing 4.5% of PVP-iodine were tested.

Q: With `[H]/N=C(\N/C(=N/[H])NCCCCCCNC(=N)NC(=N)Nc1ccc(Cl)cc1)Nc1ccc(Cl)cc1` [chlorohexidine] as the compound, how does the ciliary vibration read?
A: decrease of the measured ciliary vibration in comparison to the standard

— patent EP1449521A1, “Use of PVP-iodine liposomes for treatment of atopic dermatitis” (EURO-CELTIQUE S.A., priority 2003, dated 2004)
